The subject of one test is H358. The test can be described thus: Anti-proliferation 2D CTG test (H358). The note with it: H358 cells, 1500 cells/well, 5 days incubation with compound, CTG readout. The format is cell-based. On the procedure:
(§1) When the cell confluency was 80%, the cells were isolated with 0.25% trypsin. The isolated cells were resuspended in 5 mL of fresh cell culture medium and centrifuged to collect the cells. The number of cells were counted at the same time. Then, the cells were suspended in a culture medium at a moderate concentration. The cells were placed into a 96-well plate with 1500 cells/well for H358 and 500 cells/well for MIAPACA-2. The 96-well plate was placed in an incubator at 37° C. and incubated overnight.
(§2) 2) Day 1: processing of compound
(§3) A 2 mM stock solution was serially diluted at 10 points at a ratio of 1:3. 5× culture medium containing the compound was transferred to the corresponding wells of 96 wells. The final peak concentration of the compound was […], and the final concentration of DMSO was 0.5%. The 96-well plate was placed in the incubator at 37° C. and incubated for 5 days.
(§4) 3) Baseline reading. 4) Day 6: reading of signals
(§5) A detection reagent (CTG) was added at 50 μL/well, and the signals were read in an Envision instrument.
(§6) The percentage of inhibition ([…]) at each compound concentration was calculated based on the signals from the HPE and ZPE control wells contained in each assay plate and the fluorescence signals from individual compound wells. The inhibition rate in the ZPE control wells containing the enzyme and substrate was 0%, and the inhibition rate in the HPE control wells only containing the substrate was […]. By testing the compound in terms of numeric concentration and inhibition percentage, the compound concentration required for […] inhibition (IC50) was determined using a four-parameter logarithmic dose-response equation. The endpoint value (IC50) of the reference compound was evaluated in each experiment as a quality control measure. If the endpoint value was within three times the expected value, the experiment was considered acceptable.

The test system of the next test is MIA PaCa-2. In words: Anti-proliferation 2D CTG test (MIA PaCa-2). The settings on record: MIAPACA-2 cells, 500 cells/well, 5 days incubation with compound, CTG readout. The format is cell-based. On the procedure:
as §1, §2, §3, §4, §5, §6

Setting [1] is: Homo sapiens, MIA PaCa-2, 120 h.

Consider `C=CC(=O)N1CCN(c2nc(=O)n3c4nc(c(F)cc24)-c2c(F)cccc2OCC(O)C(OC(=O)C2CC2)c2ccnc(C(C)C)c2-3)[C@@H](C)C1` (stereo partly drawn) [Example 10, 2^4-((S)-4-acryloyl-2-methylpiperazin-1-yl)-2^6,3^6-difluoro-6-hydroxy-1^2-isopropyl-2^2-oxo-2^1,2^2-dihydro-4-oxa-2(1,7)-pyrido[2,3-d]pyrimidina-1(3,4)-pyridina-3(1,2)-benzocycloheptane-7-yl cyclopropanecarboxylate], for which the IC50 with H358 (Homo sapiens, NCI-H358, 120 h) amounted to 5 nM; with MIA PaCa-2 (setting [1]), 4 nM.
For `C=CC(=O)N1CCN(c2nc(=O)n3c4nc(c(F)cc24)-c2c(F)cccc2OCC(O)C(OC(=O)OC(C)(C)C)c2ccnc(C(C)C)c2-3)[C@@H](C)C1` (stereo partly drawn) [Example 11, 2^4-((S)-4-acryloyl-2-methylpiperazin-1-yl)-2^6,3^6-difluoro-6-hydroxy-1^2-isopropyl-2^2-oxo-2^1,2^2-dihydro-4-oxa-2(1,7)-pyrido[2,3-d]pyrimidina-1(3,4)-pyridina-3(1,2)-benzocycloheptane-7-yl tert-butylcarbonate], in that order: 26 nM and 21 nM.
In the same order, the values of `C=CC(=O)N1CCN(c2nc(=O)n3c4nc(c(F)cc24)-c2c(F)cccc2OCC(OC(=O)CC)C(OC(=O)CC)c2ccnc(C(C)C)c2-3)[C@@H](C)C1` (stereo partly drawn) [Example 12, 2^4-((S)-4-acryloyl-2-methylpiperazin-1-yl)-2^6,3^6-difluoro-1^2-isopropyl-2^2-oxo-2^1,2^2-dihydro-4-oxa-2(1,7)-pyrido[2,3-d]pyrimidina-1(3,4)-pyridina-3(1,2)-benzocycloheptane-6,7-diyl dipropionate] are 26 nM and 26 nM.
In the same order, the values of `C=CC(=O)N1CCN(c2nc(=O)n3c4nc(c(F)cc24)-c2c(F)cccc2OCC(OC(=O)C(C)C)C(OC(=O)C(C)C)c2ccnc(C(C)C)c2-3)[C@@H](C)C1` (stereo partly drawn) [Example 13, 2^4-((S)-4-acryloyl-2-methylpiperazin-1-yl)-2^6,3^6-difluoro-1^2-isopropyl-2^2-oxo-2^1,2^2-dihydro-4-oxa-2(1,7)-pyrido[2,3-d]pyrimidina-1(3,4)-pyridina-3(1,2)-benzocycloheptane-6,7-diyl di(2-methylpropionate)] are 5 nM and 5 nM.
With `C=CC(=O)N1CCN(c2nc(=O)n3c4nc(c(F)cc24)-c2c(F)cccc2OCC(OC(=O)C2CC2)C(OC(=O)C2CC2)c2ccnc(C(C)C)c2-3)[C@@H](C)C1` (stereo partly drawn) [Example 14, 2^4-((S)-4-acryloyl-2-methylpiperazin-1-yl)-2^6,3^6-difluoro-1^2-isopropyl-2^2-oxo-2^1,2^2-dihydro-4-oxa-2(1,7)-pyrido[2,3-d]pyrimidina-1(3,4)-pyridina-3(1,2)-benzocycloheptane-6,7-diyl dicyclopropanecarboxylate], the IC50 was determined as 6 nM in the test on H358 (Homo sapiens, NCI-H358, 120 h) and 9 nM in the test on MIA PaCa-2 (setting [1]).
For `C=CC(=O)N1CCN(c2nc(=O)n3c4nc(c(F)cc24)-c2c(F)cccc2OCC(OC(=O)OC(C)(C)C)C(OC(=O)OC(C)(C)C)c2ccnc(C(C)C)c2-3)[C@@H](C)C1` (stereo partly drawn) [Example 15, 2^4-((S)-4-acryloyl-2-methylpiperazin-1-yl)-2^6,3^6-difluoro-1^2-isopropyl-2^2-oxo-2^1,2^2-dihydro-4-oxa-2(1,7)-pyrido[2,3-d]pyrimidina-1(3,4)-pyridina-3(1,2)-benzocycloheptane-6,7-diyl di-tert-butyldi(carbonate)], in that order: 12 nM and 10 nM.
For `C=CC(=O)N1CCN(c2nc(=O)n3c4nc(c(F)cc24)-c2c(F)cccc2OCCC(OC(C)=O)c2ccnc(C(C)C)c2-3)[C@@H](C)C1` (stereo partly drawn) [Example 16, 2^4-((S)-4-acryloyl-2-methylpiperazin-1-yl)-2^6,3^6-difluoro-1^2-isopropyl-2^2-oxo-2^1,2^2-dihydro-4-oxa-2(1,7)-pyrido[2,3-d]pyrimidina-1(3,4)-pyridina-3(1,2)-benzocycloheptane-7-yl acetate], in that order: 29 nM and 20 nM.
Consider `C=CC(=O)N1CCN(c2nc(=O)n3c4nc(c(F)cc24)-c2c(F)cccc2OCC(OCOC(=O)OC)C(OCOC(=O)OC)c2ccnc(C(C)C)c2-3)[C@@H](C)C1` (stereo partly drawn) [Example 17, ((2^4-((S)-4-acryloyl-2-methylpiperazin-1-yl)-2^6,3^6-difluoro-1^2-isopropyl-2^2-oxo-2^1,2^2-dihydro-4-oxa-2(1,7)-pyrido[2,3-d]pyrimidina-1(3,4)-pyridina-3(1,2)-benzocycloheptane-6,7-diyl)di(oxo))di(methylene) dimethyldi(carbonate)], for which the IC50 in the test on H358 (Homo sapiens, NCI-H358, 120 h) was 9 nM; in the test on MIA PaCa-2 (setting [1]), 9 nM.
With `C=CC(=O)N1CCN(c2nc(=O)n3c4nc(c(F)cc24)-c2c(F)cccc2OCC(OC(C)=O)C(OC(C)=O)c2ccnc(C(C)C)c2-3)[C@@H](C)C1` (stereo partly drawn) [Example 18, 2^4-((S)-4-acryloyl-2-methylpiperazin-1-yl)-2^6,3^6-difluoro-1^2-isopropyl-2^2-oxo-2^1,2^2-dihydro-4-oxa-2(1,7)-pyrido[2,3-d]pyrimidina-1(3,4)-pyridina-3(1,2)-benzocycloheptane-6,7-diyl diacetate], the IC50 was 14 nM in the test with H358 (Homo sapiens, NCI-H358, 120 h) and 6 nM with MIA PaCa-2 (setting [1]).
As for `C=CC(=O)N1CCN(c2nc(=O)n3c4nc(c(F)cc24)-c2c(F)cccc2OCC(OC(C)=O)C(OC(C)=O)c2ccnc(C(C)C)c2-3)[C@@H](C)C1` (stereo partly drawn) [Example 18-R, (R)-2^4-((S)-4-acryloyl-2-methylpiperazin-1-yl)-2^6,3^6-difluoro-1^2-isopropyl-2^2-oxo-2^1,2^2-dihydro-4-oxa-2(1,7)-pyrido[2,3-d]pyrimidina-1(3,4)-pyridina-3(1,2)-benzocycloheptane-6,7-diyl diacetate], the IC50 is 16 nM in the test with H358 and 15 nM with MIA PaCa-2.
For `C=CC(=O)N1CCN(c2nc(=O)n3c4nc(c(F)cc24)-c2c(F)cccc2OCC(OC(C)=O)C(OC(C)=O)c2ccnc(C(C)C)c2-3)[C@@H](C)C1` (stereo partly drawn) [Example 18-S, (S)-2^4-((S)-4-acryloyl-2-methylpiperazin-1-yl)-2^6,3^6-difluoro-1^2-isopropyl-2^2-oxo-2^1,2^2-dihydro-4-oxa-2(1,7)-pyrido[2,3-d]pyrimidina-1(3,4)-pyridina-3(1,2)-benzocycloheptane-6,7-diyl diacetate], in that order: 351 nM and 266 nM.
`C=CC(=O)N1CCN(c2nc(=O)n3c4nc(c(F)cc24)-c2c(F)cccc2OCC(=O)C(OC(C)=O)c2ccnc(C(C)C)c2-3)[C@@H](C)C1` (stereo partly drawn) [Example 19, 2^4-((S)-4-acryloyl-2-methylpiperazin-1-yl)-2^6,3^6-difluoro-1^2-isopropyl-2^2,6-dioxo-2^1,2^2-dihydro-4-oxa-2(1,7)-pyrido[2,3-d]pyrimidina-1(3,4)-pyridina-3(1,2)-benzocycloheptane-7-yl acetate]: the IC50 in the test with H358 (Homo sapiens, NCI-H358, 120 h) is 18 nM; in the test on MIA PaCa-2 (setting [1]), 18 nM.
For `C=CC(=O)N1CCN(c2nc(=O)n3c4nc(c(F)cc24)-c2c(F)cccc2OCC(=O)C(OC(C)=O)c2ccnc(C(C)C)c2-3)[C@@H](C)C1` (stereo partly drawn) [Example 20, (R)-2^4-((S)-4-acryloyl-2-methylpiperazin-1-yl)-2^6,3^6-difluoro-1^2-isopropyl-2^2,6-dioxo-2^1,2^2-dihydro-4-oxa-2(1,7)-pyrido[2,3-d]pyrimidina-(3,4)-pyridina-3(1,2)-benzocycloheptane-7-yl acetate], the IC50 in the test on H358 amounted to 25 nM; in the test with MIA PaCa-2, 30 nM.

One may read the IC50 as the point on the concentration scale where inhibition reaches its midpoint.

Source of the values: patent publication US20240101573A1, “MACROCYCLIC K-RAS G12C INHIBITOR, PREPARATION METHOD THEREFOR AND USE THEREOF” (Abbisko Therapeutics Co., Ltd., priority 2020, published 2024).
